Results: US10294202B2, “Pyrrolidinones as herbicides” (FMC Corporation, priority 2013, dated 2019)

Experiments:
sprangletop, Brdd. = assay: Test F flood (paddy) test; assay type: in vivo, Leptochloa fascicularis; conditions: 21 d, scale 0-100
Source text: (§1) Three plastic pots (ca. 16-cm diameter) per rate were partially filled with sterilized Tama silt loam soil comprising a 35:50:15 ratio of sand, silt and clay and 2.6% organic matter. Separate plantings for each of the three pots were as follows. Seeds from the U.S. of monochoria (Monochoria vaginalis), sedge, umbrella (small-flower umbrella sedge, Cyperus difformis), bulrush, […] bulrush, Scirpus juncoides), and […] (purple […] coccinea), were planted into one 16-cm pot for each rate. Seeds from the U.S. of flatsedge, rice (rice flatsedge, Cyperus iria), sprangletop, Brdd. (bearded sprangletop, Leptochloa fascicularis), one stand of 9 or 10 water seeded rice seedlings (Rice, W.S. Jap, Oryza sativa cv. 'Japonica-[…]' or Rice, W.S. Ind, 'Indica'), and two stands of 3 or 4 seedlings of rice, transplanted (transplanted rice, Oryza sativa cv. 'Japonica-[…]') were planted into one 16-cm pot for each rate. Seeds from the U.S. of barnyardgrass (Echinochloa crus-galli), […] (common […], Alisma plantago-aquatica), and watergrass, late (late watergrass, Echinochloa oryzicola) were planted into one 16-cm pot for each rate. Plantings were sequential so that crop and weed species were at the 2.0 to 2.5-leaf stage at time of treatment. Potted plants were grown in a greenhouse with day/night temperature settings of 30/27° C., and supplemental balanced lighting was provided to maintain a 16-h photoperiod. Test pots were maintained in the greenhouse until test completion. At time of treatment, test pots were flooded to 3 cm above the soil surface, treated by application of test compounds directly to the paddy water, and then maintained at that water depth for the duration of the test. Effects of treatments on rice and weeds were visually evaluated by comparison to untreated controls after 21 d. Plant response ratings, summarized in Table F, are based on a scale of 0 to 100 where 0 is no effect and 100 is complete control. A dash (-) response means no test result.

barnyardgrass = assay: Test F flood (paddy) test; assay type: in vivo, Echinochloa crus-galli; conditions: 21 d, scale 0-100
Source text: as §1

speedwell = assay: Test D pre-/postemergence herbicide test; assay type: in vivo, Veronica persica; conditions: Preemergence, scale 0 to 100 (0 no effect, 100 complete control)
Source text: (§2) Seeds of plant species selected from bluegrass (annual bluegrass, Poa annua), blackgrass (Alopecurus myosuroides), canarygrass (littleseed canarygrass, Phalaris minor), chickweed (common chickweed, Stellaria media), galium (catchweed bedstraw, Galium aparine), bromegrass, downy (downy bromegrass, Bromus tectorum), field poppy (Papaver rhoeas), field violet (Viola arvensis), foxtail, green (green foxtail, Setaria viridis), deadnettle (henbit deadnettle, Lamium amplexicaule), ryegrass, Italian (Italian ryegrass, Lolium multiflorum), kochia (Kochia scoparia), lambsquarters (Chenopodium album), oilseed rape (Brassica napus), pigweed (Amaranthus retroflexus), chamomile (scentless chamomile, Matricaria inodora), Russian thistle (Salsola kali), speedwell (bird's-eye speedwell, Veronica persica), barley, spring (spring barley, Hordeum vulgare), wheat, spring (spring wheat, Triticum aestivum), buckwheat, wild (wild buckwheat, Polygonum convolvulus), mustard, wild (wild mustard, Sinapis arvensis), oat, wild (wild oat, Avena fatua), radish, wild (wild radish, Raphanus raphanistrum), […]), barley, winter (winter barley, Hordeum vulgare), and wheat, winter (winter wheat, Triticum aestivum) were planted into a silt loam soil and treated preemergence with test chemicals formulated in a non-phytotoxic solvent mixture which included a surfactant. At the same time, these species were planted in pots containing Redi-Earth® planting medium (Scotts Company, 14111 Scottslawn Road, Marysville, Ohio 43041) comprising spaghnum peat moss, vermiculite, wetting agent and starter nutrients and treated with postemergence applications of the test chemicals formulated in the same manner. Plants ranged in height from 2 to 18 cm (1- to 4-leaf stage). Treated plants and controls were maintained in a controlled growth environment for 7 to 21 days after which time all species were compared to controls and visually evaluated. Plant response ratings, summarized in Table D, are based on a scale of 0 to 100 where 0 is no effect and 100 is complete control. A dash (-) response means no test result.

windgrass = assay: Test D pre-/postemergence herbicide test; assay type: in vivo, Apera spica-venti; conditions: Preemergence, scale 0 to 100 (0 no effect, 100 complete control)
Source text: as §2

oat, wild = assay: Test D pre-/postemergence herbicide test; assay type: in vivo, Avena fatua; conditions: Preemergence, scale 0 to 100 (0 no effect, 100 complete control)
Summary of the method: (§3)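 Dual-timing greenhouse test: preemergence application to seeds in silt loam soil, postemergence application to 1- to 4-leaf plants in peat-based medium. Chemicals were formulated with surfactant in non-phytotoxic solvent. Control was rated visually 0–100 relative to untreated plants after 7 to 21 days.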

field violet = assay: Test D pre-/postemergence herbicide test; assay type: in vivo, Viola arvensis; conditions: Preemergence; for Plant response rating, Field Violet: scale 0 to 100 (0 no effect, 100 complete control)
Summary of the method: as §3

CN1CC(c2ccc(F)cc2)C(C(=O)Nc2cccc(F)c2F)C1=O (centres unmarked) [Compound 271]
Plant response rating, Sprangletop, Brdd. (sprangletop, Brdd.; 64 g ai/ha): 20
Plant response rating, Sprangletop, Brdd. (sprangletop, Brdd.; 125 g ai/ha): 30
Plant response rating, Sprangletop, Brdd. (sprangletop, Brdd.; 250 g ai/ha): 80
Plant response rating, Sprangletop, Brdd. (sprangletop, Brdd.; 500 g ai/ha): 95
Plant response rating, Barnyardgrass (barnyardgrass; 64 g ai/ha): 55
Plant response rating, Barnyardgrass (barnyardgrass; 125 g ai/ha): 75
Plant response rating, Barnyardgrass (barnyardgrass; 250 g ai/ha): 100
Plant response rating, Barnyardgrass (barnyardgrass; 500 g ai/ha): 100

O=C1NCC(c2ccc(C(F)(F)F)c(F)c2)C1C(=O)Nc1cccc(F)c1F (racemic) [Compound 247]
Plant response rating, Sprangletop, Brdd. (sprangletop, Brdd.; 125 g ai/ha): 90
Plant response rating, Sprangletop, Brdd. (sprangletop, Brdd.; 250 g ai/ha): 95
Plant response rating, Sprangletop, Brdd. (sprangletop, Brdd.; 500 g ai/ha): 98
Plant response rating, Sprangletop, Brdd. (sprangletop, Brdd.; 1000 g ai/ha): 98
Plant response rating, Sprangletop, Brdd. (sprangletop, Brdd.; 2000 g ai/ha): 98
Plant response rating, Barnyardgrass (barnyardgrass; 125 g ai/ha): 60
Plant response rating, Barnyardgrass (barnyardgrass; 250 g ai/ha): 65
Plant response rating, Barnyardgrass (barnyardgrass; 500 g ai/ha): 70
Plant response rating, Barnyardgrass (barnyardgrass; 1000 g ai/ha): 70
Plant response rating, Barnyardgrass (barnyardgrass; 2000 g ai/ha): 75

O=C1NCC(c2cccc(C(F)(F)F)c2)C1C(=O)Nc1ccc(F)cc1F (racemic) [Compound 207]
Plant response rating, Sprangletop, Brdd. (sprangletop, Brdd.; 125 g ai/ha): 100
Plant response rating, Sprangletop, Brdd. (sprangletop, Brdd.; 250 g ai/ha): 100
Plant response rating, Sprangletop, Brdd. (sprangletop, Brdd.; 500 g ai/ha): 100
Plant response rating, Speedwell (speedwell; 31 g ai/ha): 20
Plant response rating, Speedwell (speedwell; 62 g ai/ha): 20
Plant response rating, Speedwell (speedwell; 125 g ai/ha): 25
Plant response rating, Speedwell (speedwell; 250 g ai/ha): 30
Plant response rating, Windgrass (windgrass; 31 g ai/ha): 5
Plant response rating, Windgrass (windgrass; 62 g ai/ha): 20
Plant response rating, Windgrass (windgrass; 125 g ai/ha): 20
Plant response rating, Windgrass (windgrass; 250 g ai/ha): 65
Plant response rating, Oat, Wild (oat, wild; 31 g ai/ha): 0
Plant response rating, Oat, Wild (oat, wild; 62 g ai/ha): 0
Plant response rating, Oat, Wild (oat, wild; 125 g ai/ha): 5
Plant response rating, Oat, Wild (oat, wild; 250 g ai/ha): 20
Plant response rating, Field Violet (field violet; 31 g ai/ha): 10
Plant response rating, Field Violet (field violet; 62 g ai/ha): 15
Plant response rating, Field Violet (field violet; 125 g ai/ha): 35
Plant response rating (field violet; 250 g ai/ha, Field Violet, scale 0 to 100): 35
Plant response rating, Barnyardgrass (barnyardgrass; 125 g ai/ha): 60
Plant response rating, Barnyardgrass (barnyardgrass; 250 g ai/ha): 100
Plant response rating, Barnyardgrass (barnyardgrass; 500 g ai/ha): 100

O=C1NCC(c2cccc(C(F)(F)F)c2)C1C(=O)Nc1ccccc1F (racemic) [Compound 3]
Plant response rating, Sprangletop, Brdd. (sprangletop, Brdd.; 250 g ai/ha): 80
Plant response rating, Sprangletop, Brdd. (sprangletop, Brdd.; 500 g ai/ha): 85
Plant response rating, Barnyardgrass (barnyardgrass; 250 g ai/ha): 90
Plant response rating, Barnyardgrass (barnyardgrass; 500 g ai/ha): 90
